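Grown in 96-well plates, cells were treated for 48 hours with each compound at five concentrations. Insufficient inhibition: endpoint recorded as highest concentration tested. GI50 is the concentration that inhibits growth by half.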 The source made the active and inactive calls. No stated cut-off is given here; in the data, active = GI50 up to about 1.1 µM and inactive = higher.

We go through five compounds from ChEMBL document CHEMBL1201862, “PubChem BioAssay data set” (2004).

Some test systems named below: KM12; A549; NCI-H23; OVCAR-8; MDA-MB-231; OVCAR-5; TK-10; HCT-116; CCRF-CEM; RPMI-8226; M14; SF-539; MCF7; A498; SK-MEL-28; SW-620; HOP-92; SK-MEL-2; SNB-19; SR.
Holding throughout (experiment): NCI tumour cell line growth inhibition, 48 h

For `Clc1ccc(Cl)c(Nc2ccnc(SCc3ccccc3)n2)c1`, the GI50 with KM12, in the experiment on A549, with NCI-H23, in the experiment on OVCAR-8, in the experiment on MDA-MB-231 and in the experiment with OVCAR-5 was > 100 µM (inactive) throughout. The GI50 was > 100 µM (inactive) in the experiment with TK-10; > 100 µM (inactive) in the experiment with HCT-116; > 100 µM (inactive) in the experiment on CCRF-CEM; 99.8 µM (inactive) in the experiment on RPMI-8226; 70 µM (inactive) in the experiment with M14; > 100 µM (inactive) with SF-539. The GI50 with MCF7, in the experiment on A498, in the experiment with SK-MEL-28, in the experiment on SW-620, in the experiment with HOP-92 and with SK-MEL-2 was > 100 µM (inactive) throughout. Further, the GI50 in the experiment with SNB-19 and with SR was > 100 µM (inactive) each time.

Consider `CCOC1C=CCCO1` (stereo not given), for which the GI50 with KM12, with A549, with NCI-H23, with OVCAR-8, in the experiment on MDA-MB-231 and in the experiment with OVCAR-5 was > 100 µM (inactive) in each case. The GI50 with TK-10, in the experiment on HCT-116, in the experiment with CCRF-CEM, with RPMI-8226, with M14 and in the experiment with SF-539 was > 100 µM (inactive) in each case. The GI50 with MCF7, in the experiment with A498, in the experiment on SK-MEL-28, with SW-620, in the experiment on HOP-92 and in the experiment with SK-MEL-2 was > 100 µM (inactive) each time. Further, the GI50 in the experiment with SNB-19 and in the experiment on SR was > 100 µM (inactive) throughout.

For `C=C(CN(C)C)C(=O)c1cc(C)ccc1C`, the GI50 is 18.6 µM (inactive) in the experiment on KM12; 19.7 µM (inactive) in the experiment on A549; 11.4 µM (inactive) in the experiment on NCI-H23; 20.7 µM (inactive) in the experiment on OVCAR-8; 8.83 µM (inactive) in the experiment with MDA-MB-231; 14.8 µM (inactive) in the experiment with OVCAR-5. Also, the GI50 in the experiment with TK-10 is 8.95 µM (inactive); with HCT-116 it was 4.7 µM (inactive); with CCRF-CEM, 0.345 µM (active); in the experiment with RPMI-8226, 1.42 µM (inactive); with M14, 2.11 µM (inactive); in the experiment with SF-539, 8.91 µM (inactive). The GI50 is 2.96 µM (inactive) with MCF7; 23.6 µM (inactive) in the experiment with A498; 9.1 µM (inactive) in the experiment on SK-MEL-28; 1.82 µM (inactive) in the experiment with SW-620; 2.81 µM (inactive) with HOP-92; 16.9 µM (inactive) in the experiment on SK-MEL-2. Besides, the GI50 with SNB-19 is 19.9 µM (inactive); in the experiment with SR it was 0.726 µM (active).

Regarding `Cc1ccsc1C(=S)Nc1ccc(Cl)c(/C=N/OC(C)C)c1`, the GI50 is 26.4 µM (inactive) with KM12; 46.6 µM (inactive) in the experiment on A549; 20.1 µM (inactive) with NCI-H23; 44.3 µM (inactive) in the experiment with OVCAR-8; 41.2 µM (inactive) in the experiment on MDA-MB-231; > 100 µM (inactive) in the experiment on OVCAR-5. Besides, the GI50 is 65.3 µM (inactive) in the experiment with TK-10; 27.4 µM (inactive) with HCT-116; 38.1 µM (inactive) in the experiment on CCRF-CEM; 14.7 µM (inactive) with RPMI-8226; 37.7 µM (inactive) in the experiment with M14; > 100 µM (inactive) with SF-539. The GI50 is 15.6 µM (inactive) with MCF7; 64 µM (inactive) in the experiment with A498; 67.8 µM (inactive) in the experiment on SK-MEL-28; 34.3 µM (inactive) with SW-620; > 100 µM (inactive) with HOP-92; 55.1 µM (inactive) in the experiment on SK-MEL-2. The GI50 is 44.5 µM (inactive) with SNB-19 and 16.3 µM (inactive) in the experiment on SR.

As for `CCC1(c2ccccc2)C(=O)N=C(c2ccccc2)N1CCc1ccccc1` (stereo not given), the GI50 with KM12, in the experiment with A549, in the experiment with NCI-H23, in the experiment on OVCAR-8, in the experiment on MDA-MB-231 and with OVCAR-5 was > 100 µM (inactive) each time. The GI50 in the experiment with TK-10, in the experiment with HCT-116, in the experiment on CCRF-CEM, in the experiment on RPMI-8226, in the experiment with M14 and in the experiment on SF-539 was > 100 µM (inactive) in each case. In addition, the GI50 with MCF7, in the experiment with A498, in the experiment on SK-MEL-28, with SW-620, in the experiment with HOP-92 and in the experiment with SK-MEL-2 was > 100 µM (inactive) each time. For the same compound, the GI50 with SNB-19 and in the experiment on SR was > 100 µM (inactive) in each case.
